Measured values: patent US4670469A, “Hydroxamic acid and pharmaceutical preparations containing the same” (VEB Arzneimittelwerk Dresden, priority 1983, dated 1987)
Read-outs that look alike come from different tables or passages of the source.

What was measured:
[1] = test system: guinea pig lung strips; assay: Arachidonic acid-induced spasm of isolated guinea pig lung strips; details: active substance 100 μM
Description: They display in animal experimental tests on isolated lung strips from guinea pigs a pronounced antiasthmatic effect. The testing of the mentioned pharmacological characteristics follows according to the principles of measuring techniques known from the literature, which come into use in modified form (G. M. Drazen et al. G. Clin. Invest. 63 1 (1979); M. W. Schneider and G. M. Drazen Amer. Rev. Resp. Dis. 121 835 (1980); S. S. Yen and W. Kreutner, Agents Actions 10 274 (1980); S. S. Yen Prostaglandins 22, 183 (1981)).
The compounds of Formula I effect a significant restraint on arachidonic acid-induced bronchial constriction (1.5.10^-5 M arachidonic acid) in the guinea pig lung preparations (see, Example 6). Also with the addition of a cyclooxygenase inhibitor to the measuring system this effect was unaltered, and to some extent stronger, detectably. These experimental results permit without a doubt the conclusion that the compounds of Formula I involve inhibitors of the lipoxygerase pathway of arachidonic utilization, and the above described pharmacological effect is grounded upon this mechanism of activity.
The testing of the compounds for antiasthmatic activity follows on isolated lung strips and isolated tracheal rings from guinea pigs according to measuring methods known from the literature (supra) in modified form. The measurements follow in thermostatically controlled organ bath, isotonically using a contraction measuring arrangement with lift receiver, measuring coil, measuring amplifier (inductive measurement with the aid of a high frequency resonant circuit). The gasification follows with air. The suspension solution has the following composition: 39.46 g NaCl, 2.2 g KCl, 6.07 g Tris, 1.0 g CaCl2, 9.9 g glucose, 1.0 ml saturated MgCl2 -solution, 43 ml 1N HCl; pH 7.4.
(a) Activity on spasm of the guinea pig lung strips, induced by exogenous arachidonic acid.
The spasm is triggered by rising concentrations of arachidonic acid (concentrated solution in ethanol, stored in N2 -atmosphere) and is cumulatively measured. […] The active substance caused a highly significant displacement to the right of the Dose-Activity curves for arachidonic acid, visible by a clear elevation of the ED50 - and ED84 -values. The effect can be described through the following activity index: [formula] In an analogous manner, the index i84 is determined from the measured data.

[2] = target: T1, lipoxygenase from rabbit reticulocytes (Oryctolagus cuniculus, UniProt P12530); assay: Inhibition of the activity of lipoxygenase from rabbit reticulocytes (oxygen consumption, Clark electrode); format: biochemical
T1 construct: The lipoxygenase from rabbit reticulocytes is obtained in electrophoretically and immunologically pure form; from tissue; host or cells: rabbit reticulocytes
T1 sequence (P12530 1-663): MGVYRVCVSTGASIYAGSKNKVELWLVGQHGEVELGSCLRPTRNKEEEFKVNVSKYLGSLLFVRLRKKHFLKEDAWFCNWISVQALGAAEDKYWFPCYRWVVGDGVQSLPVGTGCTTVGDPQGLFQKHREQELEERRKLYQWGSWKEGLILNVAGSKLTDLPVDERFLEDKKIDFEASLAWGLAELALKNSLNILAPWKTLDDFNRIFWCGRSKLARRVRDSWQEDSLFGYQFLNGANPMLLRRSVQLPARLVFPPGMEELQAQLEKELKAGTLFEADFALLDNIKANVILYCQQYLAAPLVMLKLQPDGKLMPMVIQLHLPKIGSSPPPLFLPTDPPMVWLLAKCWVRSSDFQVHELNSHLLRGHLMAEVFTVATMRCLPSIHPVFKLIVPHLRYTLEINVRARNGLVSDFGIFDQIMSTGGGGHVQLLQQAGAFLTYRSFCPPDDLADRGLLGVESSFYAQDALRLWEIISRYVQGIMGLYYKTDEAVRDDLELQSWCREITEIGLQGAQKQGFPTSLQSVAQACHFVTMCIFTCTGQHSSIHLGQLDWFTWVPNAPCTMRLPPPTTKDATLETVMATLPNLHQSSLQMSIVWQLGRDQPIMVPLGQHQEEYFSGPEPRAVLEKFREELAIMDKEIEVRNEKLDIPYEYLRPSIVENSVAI
Procedure: The lipoxygenase from rabbit reticulocytes was obtained in electrophoretically and immunologically pure form according to a technique known from the literature (S. M. Rapoport et al. Methods in Enzymology 71, 430 (1981)). The determination of lipoxygenase activity follows at 25° C. through the polarographic measurement of the oxygen consumption by means of Clark Electrode in a standardized system.
Through variation of the substance concentrations, the titration curves of the inhibition and therefrom the inhibition concentrations (I-value) of the compounds can be determined.
The testing of compounds for antiasthmatic, antiallergenic, inflammation-inhibiting and antithrombotic activity on the basis on the inhibition of the lipoxygenase reaction of the arachidonic acid cascade follows in a molecular/pharmacological test system. […] The lipoxygenase from rabbit reticulocytes is obtained in electrophoretically and immunologically pure form according to the techniques described in the literature (supra). The determination of the lipoxygenase activity follows at 25° C. through the polorographic measurement of oxygen consumption by means of a Clark-electrode in the following system: 0.1M potassiumphosphate, pH 7.4, with 0.2 percent sodium cholate and 0.53 mM linoleic acid. The enzyme concentration in the measurement preparation came to 25 nM. The compounds to be tested are dissolved in methylglycol (freshly distilled in a vacuum) and pre-incubated for 15 minutes at the measuring temperature in the absence of sodium cholate and linoleic acid. […] The enzyme reaction is started by the addition of sodium cholate and linoleic acid.

[3] = target: lipoxygenase from peas; assay: Inhibition of lipoxygenase from peas; format: biochemical; details: read-out: I50
Procedure: The inhibition of thrombocyte aggregation is likewise ascribed to the inhibition of lipoxygenase in the cells. It has thus been shown that the arachidonate-lipoxygenase activity of a microsome-free lysate of human thrombocyte concentrates is inhibited to the extent of 100% by means of 0.25 mM salicylhydroxamic acid. Moreover, it has been shown that also a series of further lipoxygenases are inhibited by means of the here described hydroxamic acids. The lipoxygenase from soybeans reacts the most insensitive, i.e. it is inhibited by means of 1 mM salicylhydroxamic acid at pH 7.4 to an extent of 60% and by means of 0.4 mM 2-hydroxy-1-napthylhydroxamic acid to an extent of 54%. In contrast, for the lipoxygenase from peas which come closer in their characteristics to human lipoxygenase, the following I50 -values are provided: salicyl hydroxamic acid, 5 μM, 2-hydroxy-1-napthylhydroxamic acid, 2 μM, 2(2'-napthoxy)-acethydroxamic acid, 2 μM. Moreover it has been shown that the formation lipoxygenase products of arachidonic acid in in vitro cultivated aorta endothelial cells of calves is hindered through 0.1 mM 2-hydroxy-1-napthylhydroxamic acids.

| Structure (SMILES) | activity index i50 (displacement of arachidonic acid ED50) [1] | activity index i84 (displacement of arachidonic acid ED84) [1] | IC50 ([2]; 25° C., pH 7.4, 0.53 mM linoleic acid, 15 min pre-incubation, read-out: I50) [µM] | IC84 ([2]; 25° C., pH 7.4, 0.53 mM linoleic acid, 15 min pre-incubation, read-out: I84) [µM] | IC50 [3] [µM] | IC50 [2] [µM] |
| --- | --- | --- | --- | --- | --- | --- |
| O=C(COc1ccc2ccccc2c1)NO [2(2'-naphthoxy)-acethydroxamic acid] | 5.8 | 7.1 | 2.5 | 9 | 2 | – |
| O=C(NO)c1ccccc1O [salicylhydroxamic acid] | 1.9 | 8.5 | – | – | 5 | 20 |
